Source: US5120713A, “Treatment of obesity with an alpha-2-adrenergic agonist and a growth hormone releasing peptide” (Applied Research Systems ARS Holding N.V., priority 1990, dated 1992)
No end group written: not given here.

Legend:
plasma GH [1] = assay: Plasma GH response (RIA) in prepubertal obese children after clonidine, galanin and/or GHRH; format: in vivo, human (obese children); details: for Mean Peak GH Response: Obese patient group, Clo 150 micrograms/m^2 oral at time 0, GHRH 1 microgram/kg i.v. bolus at 60 min, Gal 50 pmol/kg/min infusion 55-120 min
Procedure: Eight prepubertal obese children (boys), aged 10 to 12.4 years, all in good general health and taking no medication, participated in the study with informed consent (parent and child). All had height within normal percentiles for chronological age. Bone age was advanced 6-24 months in all but one patient and weight was above the […] for chronological age in all cases. The children were tested six times at random intervals ranging from 7 to 10 days, each patient serving as their own control. Studies commenced at 0900 h after an overnight fast and bed rest and thirty minutes after the insertion of a nontrombogenic catheter for blood withdrawal in a forearm vein. The study consisted of administering clonidine (Catapresan, Boehringer Ingelheim, Spain) orally at 150 micrograms/m^2 at time 0 followed by administering GHRH (GRF 1-29, Serono, Spain) as an intravenous bolus at 1 microgram/kg at time 60 minutes. The control experiments consisted of administering on separate occasions either clonidine at time 0 or GHRH at time 60 minutes. Blood samples for GH assays (RIA, BioMerieux, France) were taken at 15 minute intervals for two hours. The mean intra-assay coefficient of variation was 5.9, 4.6 and 3.9% at mean GH concentrations of 1.5, 8 and 24 micrograms/L respectively. To avoid inter-assay variations, all samples from a subject were run in the same assay.
(§1) Galanin (Gal) was administered alone, with clonidine (Clo) and with GHRH by infusion as a saline solution at 50 pmol/kg/min through a Millex-GY (0.22 um, Millipore) filter at time 55 to 120 minutes in all experiments. Also, for comparison purposes a similar group of short stature children diagnosed as having constitutional growth delay (CGD) were administered GHRH, galanin plus GHRH, and clonidine plus GHRH (previous study) by the same procedure.

plasma GH [2] = assay: Plasma GH response in short children with constitutional growth delay (CGD); format: in vivo, human (short stature children
Procedure: as §1

GH = details: normal children and adolescents; reported (ref 9); cited from earlier work

Compound	Mean Peak GH Response (plasma GH [1]) [µg/L]	mean peak (maximal) plasma GH level (plasma GH [1]; obese children) [µg/L]	plasma GH response (in words) (plasma GH [1]; obese children)	maximal GH value in one patient (plasma GH [1]; obese children, single responding patient, at time 105 min) [µg/L]	Mean Peak GH Response (plasma GH [2]; CGD patient group, same procedure) [µg/L]	mean GH peak (plasma GH [2]; control group of short children with constitutional growth delay) [µg/L]	time of GH peak after administering GHRH (plasma GH [1]; obese children) [min]	GHRH-induced GH response (GH) [µg/L]
Clc1cccc(Cl)c1NC1=NCCN1 [Clo, 2-(2,6-dichloroanilino)-2-imidazoline]	2.9 ± 0.8	2.9 ± 0.8	did not produce any significant plasma GH increase	6.5	–	–	–	–
GHRH: growth hormone releasing hormone, GRF 1-29 (Serono, Spain) (YADAIFTNSYRKVLGQLSARKLLQDIMSR; ends and bridges not checked; UniProt P01286 32-60, looked up, fragment)	9.6 ± 2	9.6 ± 2	slight but significant increase in plasma GH	–	17.1 ± 4.3	17.1 ± 4.3	45	25.8 ± 5.6
